The test has as its target T1, wild-type caspase-1 (Homo sapiens, UniProt P29466).
T1 construct: single site alanine mutants for each of these residues in either the p10 or p20 subunit; made in house; E. coli is printed only for caspase-4/-5 made by the caspase-1 procedure
T1 sequence (P29466 120-297 limits assumed): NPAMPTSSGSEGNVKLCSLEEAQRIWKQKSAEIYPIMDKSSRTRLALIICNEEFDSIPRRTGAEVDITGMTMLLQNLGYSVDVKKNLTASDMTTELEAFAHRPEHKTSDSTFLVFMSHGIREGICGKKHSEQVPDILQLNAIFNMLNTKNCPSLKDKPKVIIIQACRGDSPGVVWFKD
T1 sequence (P29466 317-404 limits assumed): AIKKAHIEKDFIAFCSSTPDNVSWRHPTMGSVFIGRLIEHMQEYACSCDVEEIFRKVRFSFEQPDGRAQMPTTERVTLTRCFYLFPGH
In words: Titration of wild-type caspase-1 with z-VAD-FMK. The class given is biochemical. An excerpt: To test this, wild-type caspase-1 was titrated with inhibitor and found to produce a 2-fold activation when one reaches 0.2 equivalents of z-VAD-FMK. […] If the inhibitor labeled in a non-cooperative fashion we would expect that it would reach an optimum upon addition of about 0.5 equivalents and would cause a […] activation as half of the sites are inactivated. The fact this maxima is below 0.5 equivalents and is less than […] probably reflects that labeling is cooperative too. […] Thus, we have developed a second assay for evaluating the active site coupling.

Consider z-VAD-FMK, for which the “activation of wild-type caspase-1” value (0.2 equivalents of inhibitor) worked out at 2 fold. The “inhibition of wild-type caspase-1” value (approaching one equivalent of inhibitor) is given as “complete inhibition”.

For the origin of these results see patent US20120328628A1, “ANTIBODIES TO CONFORMATIONALLY TRAPPED PROTEINS” (The Regents of the University of California, priority 2006, published 2012).
